Laboratory results from patent US7666875B2, “Hydantoin compounds” (Eisai R&D Management Co., Ltd., priority 2005, dated 2010).

The compounds below were run against T1, human T-bet (Homo sapiens, UniProt Q9UL17) (assay: HEKT-bet-luc assay (T-bet dependent luciferase reporter in engineered HEK cells)). Settings: Table 2; HEKT-bet cells, compound 24 hours; IC50 normalized to reference ER-213038; read-out: IC50.
T1 construct: expressed in transfected cells; host or cells: engineered HEK cells (HEKT-bet)
T1 sequence (Q9UL17 1-535): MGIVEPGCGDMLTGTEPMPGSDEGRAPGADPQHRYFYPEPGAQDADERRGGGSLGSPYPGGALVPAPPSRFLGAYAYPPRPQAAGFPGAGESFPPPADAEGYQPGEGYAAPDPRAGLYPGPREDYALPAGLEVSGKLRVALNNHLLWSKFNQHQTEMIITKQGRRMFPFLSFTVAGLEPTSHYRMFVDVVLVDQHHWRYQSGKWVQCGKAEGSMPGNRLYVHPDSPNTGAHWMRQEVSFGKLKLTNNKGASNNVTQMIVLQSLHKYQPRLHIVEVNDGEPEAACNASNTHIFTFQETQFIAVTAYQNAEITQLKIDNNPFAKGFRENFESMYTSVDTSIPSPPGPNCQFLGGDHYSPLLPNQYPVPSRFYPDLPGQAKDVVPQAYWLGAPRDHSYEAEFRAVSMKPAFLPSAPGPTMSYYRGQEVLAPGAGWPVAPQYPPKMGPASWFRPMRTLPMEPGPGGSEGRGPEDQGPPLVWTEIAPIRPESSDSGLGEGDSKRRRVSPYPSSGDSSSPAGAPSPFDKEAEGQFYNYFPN
Type: cell-based
In short: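 HEK cells expressing human T-bet and a T-box element–luciferase reporter were treated with compound for 24 h, then luciferase was read by luminescence. IC50 was scaled between uninhibited signal and maximal inhibition, then normalized to a same-plate reference compound multiplied by its established potency.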

In order of rising IC50:
1. COc1cc(CN2CCC3(CC2)C(=O)N(C/C=C/c2ccccc2)C(=O)N3Cc2ccc(-n3cccn3)cc2)cc(OC)c1 [compound 41]  45 nM
2. COc1cc(CN2CCC3(CC2)C(=O)N(C/C=C/c2ccccc2)C(=O)N3CCO)cc(OC)c1 [compound 45]  62 nM

Same assay, conditions: Table 4; HEKT-bet cells, compound 24 hours; IC50 normalized to reference ER-213038; read-out: IC50

In order of rising IC50:
1. CCOc1ccccc1CN1CCC2(CC1)C(=O)N(Cc1cccc(OC)c1)C(=O)N2CCOC [Example 262]  495 nM
2. COCCN1C(=O)N(Cc2ccc3ccccc3c2)C(=O)C12CCN(Cc1ccccc1)CC2 [Example 263]  498 nM
3. C=Cc1cccc(CN2CCC3(CC2)C(=O)N(Cc2cccc(OC)c2)C(=O)N3CCOC)c1 [Example 264]  500 nM
4. COc1cccc(CN2C(=O)N(CC=C(C)C)C3(CCN(Cc4cccc5ccccc45)CC3)C2=O)c1 [Example 265]  501 nM
5. CCN1C(=O)N(Cc2cccc(OC)c2)C(=O)C12CCN(Cc1cccc(C)c1)CC2 [Example 266]  510 nM
6. COCCN1C(=O)N(Cc2cccc(OC)c2)C(=O)C12CCN(Cc1cccc3cc[nH]c13)CC2 [Example 267]  510 nM
7. COCCN1C(=O)N(Cc2cccc(OC)c2)C(=O)C12CCN(Cc1c(F)cccc1OC)CC2 [Example 268]  511 nM
8. COCCN1C(=O)N(Cc2cccc(OC)c2)C(=O)C12CCN(Cc1cc(OC)ccc1OC)CC2 [Example 269]  513 nM
9. COCCN1C(=O)N(Cc2cccc(OC)c2)C(=O)C12CCN(Cc1cc(OC)c(Cl)cc1F)CC2 [Example 270]  518 nM
10. CCOc1ccc(OCC)c(CN2CCC3(CC2)C(=O)N(Cc2cccc(OC)c2)C(=O)N3CCOC)c1 [Example 271]  522 nM
11. CCN1C(=O)N(Cc2ccc3ccccc3c2)C(=O)C12CCN(Cc1cccc(C)c1)CC2 [Example 272]  525 nM
12. CCCOc1ccc(CN2CCC3(CC2)C(=O)N(Cc2cccc(OC)c2)C(=O)N3CCOC)cc1OC [Example 273]  528 nM
13. COCCN1C(=O)N(Cc2cccc(OC)c2)C(=O)C12CCN(Cc1cccc(N(C)C)c1)CC2 [Example 274]  528 nM
14. COCCN1C(=O)N(Cc2cccc(OC)c2)C(=O)C12CCN(Cc1c(Cl)ccc(C)c1F)CC2 [Example 275]  532 nM
15. COCCN1C(=O)N(Cc2cccc(OC)c2)C(=O)C12CCN(Cc1cccc(N(C)c3ccccc3)c1)CC2 [Example 276]  538 nM
16. CCN1C(=O)N(CCCOc2ccccc2)C(=O)C12CCN(Cc1cccc(OC)c1)CC2 [Example 277]  540 nM
17. COCCN1C(=O)N(Cc2cccc(OC)c2)C(=O)C12CCN(Cc1ccc(F)c(OC)c1)CC2 [Example 278]  542 nM
18. CCN1C(=O)N(Cc2cccc(OC)c2)C(=O)C12CCN(Cc1cccc(OC)c1)CC2 [Example 279]  546 nM
19. CCN1C(=O)N(CCCc2ccccc2)C(=O)C12CCN(Cc1cccc3ccccc13)CC2 [Example 280]  546 nM
20. COc1cc(CN2CCC3(CC2)C(=O)N(Cc2cc(OC)cc(OC)c2)C(=O)N3Cc2ccc3c(c2)nnn3C)cc(OC)c1 [Example 281]  548 nM
21. CCN1C(=O)N(CCCc2ccccc2)C(=O)C12CCN(Cc1cccc(OC)c1)CC2 [Example 282]  549 nM
22. COCCN1C(=O)N(Cc2cccc(OC)c2)C(=O)C12CCN(Cc1ccc(-c3ccccc3)cc1)CC2 [Example 283]  550 nM
23. COCCN1C(=O)N(CCCc2ccccc2)C(=O)C12CCN(Cc1ccc3ccccc3c1)CC2 [Example 284]  551 nM
24. COc1cccc(CN2C(=O)N(CCCO)C3(CCN(Cc4cc(OC)cc(OC)c4)CC3)C2=O)c1 [Example 285]  553 nM
25. CCN1C(=O)N(Cc2ccc3ccccc3c2)C(=O)C12CCN(Cc1cccc3ccccc13)CC2 [Example 286]  560 nM
26. CCN1C(=O)N(CCc2cc(OC)cc(OC)c2)C(=O)C12CCN(Cc1cc(OC)cc(OC)c1)CC2 [Example 287]  561 nM
27. COc1cc(CN2CCC3(CC2)C(=O)N(Cc2cc(OC)cc(OC)c2)C(=O)N3Cc2ccc(-n3cccn3)cc2)cc(OC)c1 [Example 288]  567 nM
28. COCCN1C(=O)N(Cc2cccc(OC)c2)C(=O)C12CCN(Cc1c(F)ccc(C)c1Cl)CC2 [Example 289]  567 nM
29. COCCN1C(=O)N(Cc2cccc(OC)c2)C(=O)C12CCN(Cc1cccc3c1OCCO3)CC2 [Example 290]  568 nM
30. COCCN1C(=O)N(CCCc2ccccc2OC)C(=O)C12CCN(Cc1ccccc1)CC2 [Example 291]  572 nM
31. COCN1C(=O)N(Cc2cc(OC)cc(OC)c2)C(=O)C12CCN(Cc1cccc(OC)c1)CC2 [Example 292]  576 nM
32. COc1cccc(CN2C(=O)N(Cc3ccccc3)C3(CCN(Cc4cc(OC)cc(OC)c4)CC3)C2=O)c1 [Example 293]  579 nM
33. O=C1N(/C=C/Cc2ccccc2)C(=O)C2(CCN(Cc3cccc4ccccc34)CC2)N1CCO [Example 294]  579 nM
34. COCCN1C(=O)N(Cc2cccc(OC)c2)C(=O)C12CCN(Cc1cccc3c4ccccc4n(C)c13)CC2 [Example 295]  580 nM
35. COCN1C(=O)N(/C=C/Cc2ccccc2)C(=O)C12CCN(Cc1cc(OC)cc(OC)c1)CC2 [Example 296]  586 nM
36. COc1cccc(CN2C(=O)N(Cc3cccc(OC)c3)C3(CCN(Cc4ccccc4)CC3)C2=O)c1 [Example 297]  586 nM
37. CNc1cccc(CN2CCC3(CC2)C(=O)N(Cc2cccc(OC)c2)C(=O)N3CCOC)c1 [Example 298]  589 nM
38. COc1cccc(CN2C(=O)N(Cc3cccc(OC)c3)C3(CCN(Cc4cccc5ccccc45)CC3)C2=O)c1 [Example 299]  596 nM
39. COCCN1C(=O)N(CCCc2ccccc2)C(=O)C12CCN(Cc1cccc(OC)c1)CC2 [Example 300]  598 nM
40. COCCN1C(=O)N(Cc2cccc(OC)c2)C(=O)C12CCN(Cc1cccc(OC)c1F)CC2 [Example 301]  599 nM
